Converted amounts (≈) assume the structure as drawn. “Also recorded” adds a separate entry of the source. Read-outs that look alike come from different tables or passages of the source.
What was measured:
F. solani = test: Broth dilution antifungal susceptibility testing, F. solani; assay type: cell-based; details: Fusarium solani, 80% inhibition, read-out: minimum inhibitory concentration (MIC)
Protocol: (§1) A total of 23 isolates were tested to include 3 Candida albicans, 3 Candida glabrata, 3 Cryptococcus neoformans, 3 Aspergillus fumigatus, 3 Rhizopus oryzae, 3, Fusarium solani, 3 Pseudallescheria boydii, and 2 […]. All isolates were clinical isolates submitted to the Fungus Testing Laboratory for evaluation. Antifungal susceptibility testing was accomplished according to the methods outlined in the National Committee for Clinical Laboratory Standards, M-27A2, Reference Method for Broth Dilution Antifungal Susceptibility Testing of Yeasts; Approved Standard, and M38-A “Reference Method for Broth Dilution Antifungal Susceptibility Testing of Conidium-Forming Filamentous Fungi; Approved Standard”. This includes testing in RPMI-1640 with glutamine and without bicarbonate, an inoculum size of 0.5-2.5×10^3 for yeasts or […] for moulds, and incubation at 35° C. for 24 and 48 hours. […] Drug concentrations were 0.125-64 μg/ml. A 10 mg portion of each powder was weighed out and added to 1 ml of 100% DMSO for compound 205. The resulting concentration of […] was diluted to a working concentration of 6400 μg/ml for compound 205 in 100% DMSO. All subsequent dilutions were also made using the respective diluents. Final testing concentrations ranged from 0.125-64 μg/ml. The NCCLS recommended medium RPMI-1640 (Hardy Diagnostics, Santa Monica, Calif.) was utilized as the test medium. All isolates in this study were clinical isolates received in the Fungus Testing Laboratory for standard antifungal susceptibility testing and/or identification. Isolates, which were not sent for identification, were confirmed to assure testing integrity. A total of 23 were tested to include 3 Candida albicans, 3 Candida glabrata, 3 Cryptococcus neoformans, 3 Aspergillus fumigatus, 3 Rhizopus oryzae, 3, Fusarium solani, 3 Pseudallescheria boydii, and 2 […]. Minimum inhibitory concentrations (MIC) were determined at the first 24-hour interval where growth could be determined in the drug-free control tube.

T. rubrum = test: Broth dilution antifungal susceptibility testing, T. rubrum; assay type: cell-based, Trichophyton rubrum; details: Trichophyton rubrum, 80% inhibition, read-out: minimum inhibitory concentration (MIC)
Protocol: as §1

C. neoformans = test: Broth dilution antifungal susceptibility testing, C. neoformans; assay type: cell-based; details: Cryptococcus neoformans, 50% reduction in turbidity, read-out: minimum inhibitory concentration (MIC)
Protocol: as §1

C. albicans = test: Broth dilution antifungal susceptibility testing, C. albicans; assay type: cell-based, Candida albicans; details: Candida albicans, 50% reduction in turbidity, read-out: minimum inhibitory concentration (MIC)
Protocol: as §1

U87 GBM xenografts = test: Inhibition of U87 GBM xenografts; details: in vivo
A. fumigatus = test: Broth dilution antifungal susceptibility testing, A. fumigatus; assay type: cell-based, Aspergillus fumigatus; details: Aspergillus fumigatus, 80% inhibition, read-out: minimum inhibitory concentration (MIC)
Protocol: as §1

GBM xenograft = GBM xenograft tumor volume in SCID mice; assay type: in vivo
R. arrhizus = test: Broth dilution antifungal susceptibility testing, R. arrhizus; assay type: cell-based, Rhizopus oryzae; details: Rhizopus arrhizus, 80% inhibition, read-out: minimum inhibitory concentration (MIC)
Protocol: as §1

cell line U-87 = test: Activity against the cell line U-87; assay type: cell-based, human; details: potency on an equimolar basis
C. glabrata = test: Broth dilution antifungal susceptibility testing, C. glabrata; assay type: cell-based, Candida glabrata; details: Nakaseomyces glabratus, 50% reduction in turbidity, read-out: minimum inhibitory concentration (MIC)
Protocol: as §1

CP Control = test: Broth dilution antifungal susceptibility testing, CP Control; assay type: cell-based; details: read-out: minimum inhibitory concentration (MIC)
Protocol: as §1

S. apiospermum = test: Broth dilution antifungal susceptibility testing, S. apiospermum; assay type: cell-based, Pseudallescheria boydii; details: Scedosporium apiospermum, 80% inhibition, read-out: minimum inhibitory concentration (MIC)
Protocol: as §1

MIC (F. solani; 24 h, isolate 07-1399, 24 hours): 64 µg/mL (≈ 186 µM) | MIC (F. solani; 24 h, isolate 07-1755, 24 hours): > 64 µg/mL | MIC (F. solani; 24 h, isolate 07-1867, 24 hours): 32 µg/mL (≈ 93.2 µM) | MIC (F. solani; 48 h, isolate 07-1399, 48 hours): > 64 µg/mL | MIC (F. solani; 48 h, isolate 07-1755, 48 hours): > 64 µg/mL | MIC (F. solani; 48 h, isolate 07-1867, 48 hours): 64 µg/mL (≈ 186 µM) | MIC (T. rubrum; 24 h, isolate 07-1743, 24 hours): 16 µg/mL (≈ 46.6 µM) | MIC (T. rubrum; 24 h, isolate 07-2055, 24 hours): 8 µg/mL (≈ 23.3 µM) | MIC (T. rubrum; 48 h, isolate 07-1743, 48 hours): 32 µg/mL (≈ 93.2 µM) | MIC (T. rubrum; 48 h, isolate 07-2055, 48 hours): 16 µg/mL (≈ 46.6 µM) | MIC (C. neoformans; 24 h, isolate 07-2665, 24 hours): 32 µg/mL (≈ 93.2 µM) | MIC (C. neoformans; 24 h, isolate 07-2737, 24 hours): 32 µg/mL (≈ 93.2 µM) | MIC (C. neoformans; 24 h, isolate 07-2829, 24 hours): 32 µg/mL (≈ 93.2 µM) | MIC (C. neoformans; 48 h, isolate 07-2665, 48 hours): 32 µg/mL (≈ 93.2 µM) | MIC (C. neoformans; 48 h, isolate 07-2737, 48 hours): 32 µg/mL (≈ 93.2 µM) | MIC (C. neoformans; 48 h, isolate 07-2829, 48 hours): 32 µg/mL (≈ 93.2 µM) | MIC (C. albicans; 24 h, isolate 07-3006, 24 hours): 32 µg/mL (≈ 93.2 µM) | MIC (C. albicans; 24 h, isolate 07-3011, 24 hours): 32 µg/mL (≈ 93.2 µM) | MIC (C. albicans; 24 h, isolate 07-3012, 24 hours): 32 µg/mL (≈ 93.2 µM) | MIC (C. albicans; 48 h, isolate 07-3006, 48 hours): 64 µg/mL (≈ 186 µM) | MIC (C. albicans; 48 h, isolate 07-3011, 48 hours): > 64 µg/mL | MIC (C. albicans; 48 h, isolate 07-3012, 48 hours): 64 µg/mL (≈ 186 µM) | MIC (A. fumigatus; 24 h, isolate 05-388, 24 hours): 16 µg/mL (≈ 46.6 µM) | MIC (A. fumigatus; 24 h, isolate 06-4126, 24 hours): 16 µg/mL (≈ 46.6 µM) | MIC (A. fumigatus; 24 h, isolate 07-2039, 24 hours): 8 µg/mL (≈ 23.3 µM) | MIC (A. fumigatus; 48 h, isolate 05-388, 48 hours): > 64 µg/mL | MIC (A. fumigatus; 48 h, isolate 06-4126, 48 hours): > 64 µg/mL | MIC (A. fumigatus; 48 h, isolate 07-2039, 48 hours): > 64 µg/mL | MIC (R. arrhizus; 24 h, isolate 07-1870, 24 hours): > 64 µg/mL | MIC (R. arrhizus; 24 h, isolate 07-2044, 24 hours): 64 µg/mL (≈ 186 µM) | MIC (R. arrhizus; 24 h, isolate 07-2078, 24 hours): 64 µg/mL (≈ 186 µM) | MIC (R. arrhizus; 48 h, isolate 07-1870, 48 hours): > 64 µg/mL | MIC (R. arrhizus; 48 h, isolate 07-2044, 48 hours): 64 µg/mL (≈ 186 µM) | MIC (R. arrhizus; 48 h, isolate 07-2078, 48 hours): > 64 µg/mL | MIC (C. glabrata; 24 h, isolate 07-2964, 24 hours): 32 µg/mL (≈ 93.2 µM) | MIC (C. glabrata; 24 h, isolate 07-2965, 24 hours): 32 µg/mL (≈ 93.2 µM) | MIC (C. glabrata; 24 h, isolate 07-3013, 24 hours): 32 µg/mL (≈ 93.2 µM) | MIC (C. glabrata; 48 h, isolate 07-2964, 48 hours): 64 µg/mL (≈ 186 µM) | MIC (C. glabrata; 48 h, isolate 07-2965, 48 hours): 64 µg/mL (≈ 186 µM) | MIC (C. glabrata; 48 h, isolate 07-3013, 48 hours): 64 µg/mL (≈ 186 µM) | MIC (CP Control; 24 hours): 32 µg/mL (≈ 93.2 µM) | MIC (CP Control; 48 hours): 32 µg/mL (≈ 93.2 µM) | MIC (S. apiospermum; 24 h, isolate 07-1333, 24 hours): 8 µg/mL (≈ 23.3 µM) | MIC (S. apiospermum; 24 h, isolate 07-1502, 24 hours): 32 µg/mL (≈ 93.2 µM) | MIC (S. apiospermum; 24 h, isolate 07-1601, 24 hours): 2 µg/mL (≈ 5.82 µM) | MIC (S. apiospermum; 48 h, isolate 07-1333, 48 hours): 16 µg/mL (≈ 46.6 µM) | MIC (S. apiospermum; 48 h, isolate 07-1502, 48 hours): 64 µg/mL (≈ 186 µM) | MIC (S. apiospermum; 48 h, isolate 07-1601, 48 hours): 4 µg/mL (≈ 11.6 µM)
Structure (SMILES): O=C(CCCCCNC(=O)c1ccccc1S)Nc1cccnc1 [Compound 205, 2-Mercapto-N-[5-(pyridin-3-ylcarbamoyl)pentyl]benzamide]
inhibition of U87 GBM xenografts compared to control (U87 GBM xenografts): significant inhibition | activity relative to an equimolar dose of SAHA (GBM xenograft; GBM xenograft, subcutaneous): more active than, an equimolar dose of SAHA | inhibition of GBM xenograft tumor volume (GBM xenograft; tumor cells implanted subcutaneously, 0, 7, 14, 21 and 28 days): inhibited the growth of GBM xenograft tumor volume; also recorded: active | activity against the cell line U-87 (cell line U-87): most potent on an equimolar basis
